According to paper PMC9794833, “Ligand recognition and activation of neuromedin U receptor 2” (Nature Communications, 2022):

Assays:
[1] = target: T1, NMU2 (Homo sapiens, UniProt Q9GZQ4); test: IP accumulation assay (IP-One Gq kit), WT NMU2; assay type: cell-based; details: 10 μM R-PSOP
T1 construct: HA signal peptide (N); expressed in transfected cells; host or cells: HEK 293F
Description: (§1) NMU2 constructs of WT and mutants were constructed into PTT5 vector (Invitrogen), as mentioned above. HEK 293F cells were transiently transfected with WT or mutants with total of 2000 ng plasmid DNA using transfection reagent (PEI MAX 2000, Polysciences) and cultivated at 37 °C with 5% CO2. Cells were collected after 48-h transfection. IP accumulation was tested by IP-One Gq assay kit (Cisbio Bioassays, 62IPAPEJ) following the instruction manual. In general, cells were resuspended with 1× HBSS buffer containing 20 mM LiCl (stimulation buffer) and seeded into the white 384-well microplates (Proxi Plate^TM-384 Plus, PerkinElmer) with a density of 20,000 per well. Cells were preincubated with 10^−5 M R-PSOP (provided by Boehringer Ingelheim company, Germany) and gradient concentration from 10^−4 to 10^−11 M of NMU-25 or gradient concentration 10^−4 to 10^−11 M of NMU-25 alone in stimulation buffer at 37 °C for 90 min. The cryptate-labeled anti-IP1 monoclonal antibody and d2-labeled IP1 were diluted with lysis & detection buffer (1:20) and added to each well by 3 μl, respectively. The plates were incubated at room temperature for 60 minutes and then read in a Synerg^TM H1 microplate reader (BioTek) with excitation at 330 nm and emission at 620 and 665 nm. The IP1 production was calculated by a standard dose–response curve and analyzed by GraphPad Prism 8.0.

[2] = target: T2, NMU2 E127A (Homo sapiens, UniProt Q9GZQ4, E127A); test: IP accumulation assay, NMU2 mutant E127A; assay type: cell-based; details: 10 μM R-PSOP
T2 construct: HA signal peptide (N); expressed in transfected cells; host or cells: HEK 293F
T2 sequence (Q9GZQ4 whole entry E127A): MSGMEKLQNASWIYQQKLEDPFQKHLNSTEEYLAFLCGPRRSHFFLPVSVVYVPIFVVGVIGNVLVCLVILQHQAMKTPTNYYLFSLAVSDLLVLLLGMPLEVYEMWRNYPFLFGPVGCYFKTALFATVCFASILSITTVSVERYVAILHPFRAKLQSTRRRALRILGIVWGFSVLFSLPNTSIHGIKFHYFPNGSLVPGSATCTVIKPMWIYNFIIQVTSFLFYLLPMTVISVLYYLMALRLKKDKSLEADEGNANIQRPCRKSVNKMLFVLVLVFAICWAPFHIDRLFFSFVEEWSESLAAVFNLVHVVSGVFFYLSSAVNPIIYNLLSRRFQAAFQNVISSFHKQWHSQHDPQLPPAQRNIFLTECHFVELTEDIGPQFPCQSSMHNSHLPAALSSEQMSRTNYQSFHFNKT
Description: as §1

[3] = target: T3, NMU2 F131L (Homo sapiens, UniProt Q9GZQ4, F131L); test: IP accumulation assay, NMU2 mutant F131L; assay type: cell-based; details: 10 μM R-PSOP
T3 construct: HA signal peptide (N); expressed in transfected cells; host or cells: HEK 293F, transient transfection, PTT5 vector
T3 sequence (Q9GZQ4 whole entry F131L): as the sequence (Q9GZQ4 whole entry E127A) above, with A127E, F131L counted along it
Description: as §1

[4] = target: T4, NMU2 E102A (Homo sapiens, UniProt Q9GZQ4, E102A); test: IP accumulation assay, NMU2 mutant E102A; assay type: cell-based; details: 10 μM R-PSOP
T4 construct: HA signal peptide (N); expressed in transfected cells; host or cells: HEK 293F
T4 sequence (Q9GZQ4 whole entry E102A): as the sequence (Q9GZQ4 whole entry E127A) above, with E102A, A127E counted along it
Description: as §1

[5] = target: T5, NMU2 H285A (Homo sapiens, UniProt Q9GZQ4, H285A); test: IP accumulation assay, NMU2 mutant H285A; assay type: cell-based; details: 10 μM R-PSOP
T5 construct: HA signal peptide (N); expressed in transfected cells; host or cells: HEK 293F, transient transfection, PTT5 vector
T5 sequence (Q9GZQ4 whole entry H285A): as the sequence (Q9GZQ4 whole entry E127A) above, with A127E, H285A counted along it
Description: as §1

[6] = target: T6, NMU2 F177C (Homo sapiens, UniProt Q9GZQ4, F177C); test: IP accumulation assay, NMU2 mutant F177C; assay type: cell-based; details: 10 μM R-PSOP
T6 construct: HA signal peptide (N); expressed in transfected cells; host or cells: HEK 293F, transient transfection, PTT5 vector
T6 sequence (Q9GZQ4 whole entry F177C): as the sequence (Q9GZQ4 whole entry E127A) above, with A127E, F177C counted along it
Description: as §1

[7] = target: NMU2; details: cited from earlier work
[8] = target: T7, NMU2 F224A (Homo sapiens, UniProt Q9GZQ4, F224A); test: IP accumulation assay, NMU2 mutant F224A; assay type: cell-based; details: 10 μM R-PSOP
T7 construct: HA signal peptide (N); expressed in transfected cells; host or cells: HEK 293F, transient transfection, PTT5 vector
T7 sequence (Q9GZQ4 whole entry F224A): as the sequence (Q9GZQ4 whole entry E127A) above, with A127E, F224A counted along it
Description: as §1

T1 sequence (Q9GZQ4 whole entry): as the sequence (Q9GZQ4 whole entry E127A) above, with A127E counted along it

In the case of `O=C(Nc1ccccc1)Nc1cnc2c(c1)C[C@@]1(CN3CCC1CC3)O2` [R-PSOP], the “Ratio EC50(NmU-25 + R-PSOP)/EC50(NmU-25)” value [1] is reported as 13, the “Ratio change EC50 ratio (WT)/EC50 ratio (mutant)” value (“Ratio change EC50 ratio” for short) [1] is reported as 1 fold and the “Ratio EC50(NmU-25 + R-PSOP)/EC50(NmU-25)” value [2] is reported as 2. For the same molecule, the “Ratio change EC50 ratio” value [2] was 6.5 fold, the “Ratio EC50(NmU-25 + R-PSOP)/EC50(NmU-25)” value [3] was 3 and the “Ratio change EC50 ratio” value [3] was 4 fold. For the same molecule, the “antagonistic effect of R-PSOP (in words)” value ([3]; IP accumulation) was “decreased the antagonistic effect of R-PSOP significantly”, the “Ratio EC50(NmU-25 + R-PSOP)/EC50(NmU-25)” value [4] was 2 and the “Ratio change EC50 ratio” value [4] was 6.5 fold. The “antagonist inhibition effect of R-PSOP (in words)” value ([4]; IP accumulation) was “abolished”, the “Ratio EC50(NmU-25 + R-PSOP)/EC50(NmU-25)” value [5] was 20 and the “Ratio change EC50 ratio” value [5] was 0.65 fold. For the same molecule, the “Ratio EC50(NmU-25 + R-PSOP)/EC50(NmU-25)” value [6] was 8, the “Ratio change EC50 ratio” value [6] was 1.6 fold and the “antagonistic effect of R-PSOP (in words)” value ([6]; IP accumulation) was “decreased the antagonistic effect of R-PSOP significantly”. The Ki [7] was 52 nM, the “Ratio EC50(NmU-25 + R-PSOP)/EC50(NmU-25)” value [8] was 4 and the “Ratio change EC50 ratio” value [8] was 3 fold. For the same molecule, the “antagonist inhibition effect of R-PSOP (in words)” value ([8]; IP accumulation) was “abolished”.
